Experiments:
[1] = absolute recovery over vacuum-assisted evaporative concentration; higher = better recovery; details: enrichment method: VEC
How it was run: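 Samples of influent (6 mL), effluent (15 mL) and surface or nanopure water (60 mL) were spiked with standards before or after concentration, or left unspiked, at 200 ng/L (nanopure/surface) or 1000 ng/L (wastewater), adjusted by class and compound. Concentration was by evaporation at 55 °C and 20 mbar to about 0.3 mL, followed by adjustment to 0.4 mL and centrifugation. Internal standards were then added for LC-HRMS/MS analysis. Absolute recovery was (response ratio pre − unspiked)/(post − unspiked) × 100, using averages of ≥ 2 replicates.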

[2] = absolute recovery over mixed-bed multilayer solid-phase extraction; higher = better recovery; details: enrichment method: SPE
How it was run: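 Wastewater (100–250 mL, adjusted to pH 6.5 and glass-fibre filtered) or 1000 mL unfiltered nanopure water was loaded on a three-layer mixed-bed cartridge and eluted with basic then acidic ethyl acetate/methanol. Standards were spiked before extraction, after it, or not at all, at 200 ng/L (water) or 1000 ng/L (wastewater), with class exceptions. Internal standards were added afterwards, then LC-HRMS/MS ran in both ionisation modes. Absolute recovery compares background-corrected response ratios of pre- versus post-spiked samples, averaged over at least two replicates.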

[3] = LC retention time (Atlantis T3, 5-95% MeOH gradient, 0.1% formic acid); higher = more retained / less polar
How it was run: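 Retention times were recorded for reference standards (purity ≥ 95%) on a polar reversed-phase C18 column (Atlantis T3, 3 × 150 mm, 3 μm) at 0.3 mL/min. Elution used water and methanol, each with 0.1% formic acid, in a gradient from 5 to 95% methanol over 17.5 min. Detection was by high-resolution tandem mass spectrometry on a QExactive Plus, with positive and negative electrospray in separate runs. Peaks were found and integrated in TraceFinder (5 ppm tolerance, at least three points per peak) and then checked by hand.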

Row | SMILES | absolute recovery ([1]; wastewater effluent) [%] | absolute recovery ([1]; wastewater influent) [%] | absolute recovery ([2]; nanopure water) [%] | absolute recovery ([2]; surface water) [%] | absolute recovery ([2]; wastewater effluent) [%] | absolute recovery ([2]; wastewater influent) [%] | LC retention time [3] [min]
1 | Nc1nnc(-c2cccc(Cl)c2Cl)c(N)n1 [Lamotrigin] | 104 | 97.7 | 96.2 | 96.6 | 91.1 | 96.7 | 12.8
2 | N#Cc1nn(-c2c(Cl)cc(C(F)(F)F)cc2Cl)c(N)c1SC(F)(F)F [Fipronil-sulfid] | 118 | 137 | 105 | 107 | 89.4 | 121 | 20.5
3 | NS(=O)(=O)c1cc(C2(O)NC(=O)c3ccccc32)ccc1Cl (centres undefined) [Chlorthalidon] | 98.1 | 104 | 94.1 | – | 96.5 | – | 14.2
4 | COc1cc(OC)nc(NC(=O)[N-]S(=O)(=O)c2ncccc2C(=O)N(C)C)n1 [Nicosulfuron] | 103 | 102 | 95.8 | 97.3 | 96.2 | 95.7 | 16.9
5 | Nc1[nH]c(=O)ncc1F [5-Fluoro-Cytosine] | 107 | 58.4 | 4.4 | 5.9 | 5.4 | 4.3 | 3.63
6 | Cc1cc(C)cc(OCC2CNC(=O)O2)c1 (centres undefined) [Metaxalone] | 95.8 | 99.2 | 104 | 85.9 | 87.1 | 87.9 | 17.8
7 | C[NH+](C)CCCC1(c2ccc(F)cc2)OCc2cc(C#N)ccc21 (centres undefined) [Citalopram] | 104 | 100 | 94.1 | 96.1 | 92.4 | 93.9 | 14.5
8 | O=C(OC1CC2CCC(C1)[N+]21CCCC1)C(O)(c1ccccc1)c1ccccc1 (centres undefined) [Trospium] | 99.2 | 103 | 85.5 | 91.7 | 91.1 | 87.3 | 13.7
9 | Cc1c(N(C)C)c(=O)n(-c2ccccc2)n1C [4-Dimethylaminoantipyrin (=Aminopyrin)] | 89.8 | 92.9 | 72.8 | 79.5 | 77 | 88.2 | 9.33
10 | C[NH+](C)CCC(c1ccccc1)c1ccccn1 (centres undefined) [Pheniramine] | 113 | 87.2 | 87.9 | 93.7 | 91.7 | 86.8 | 11
11 | O=C1CC(C(=O)[O-])CC(=O)C1=C([O-])C1CC1 (centres undefined) [Trinexapac (free acid)] | 108 | 93 | 76.1 | 36.1 | 78.5 | 77 | 16.6
12 | CCNc1nc(N)nc(Cl)n1 [Atrazin-Desisopropyl] | 102 | 103 | 93.4 | 93.3 | 91.3 | 94.6 | 13.4
13 | CCOC(=O)NCCOc1ccc(Oc2ccccc2)cc1 [Fenoxycarb] | 127 | 120 | 105 | 127 | 113 | 74.2 | 20.4
14 | CC(C)Nc1nc(N)nc(O)n1 [Atrazin-desethyl-2-hydroxy] | 107 | 93.7 | 76.8 | 74.2 | 71.2 | 92.3 | 7.67
15 | CC([NH2+]C(C)(C)C)C(=O)c1cccc(Cl)c1 (centres undefined) [Bupropion] | 51.1 | 31.5 | 79.1 | 78 | 74.3 | 78.3 | 13.5
16 | Oc1cc(Cl)ccc1Oc1ccc(Cl)cc1Cl [Triclosan] | – | 117 | 97.2 | 90.7 | 90 | 92.3 | 21.9
17 | COC(=O)C1C2CC3c4[nH]c5cc(OC)ccc5c4CC[NH+]3CC2CC(OC(=O)c2cc(OC)c(OC)c(OC)c2)C1OC (centres undefined) [Reserpin] | 21.6 | 64.3 | 64.2 | 81.9 | 80.1 | 64.2 | 15.9
18 | CC#Cc1cc(C)nc(Nc2ccccc2)n1 [Mepanipyrim] | 95.3 | 62.1 | 93.5 | 107 | 103 | 94.9 | 20.2
19 | CC(C)c1nc(N(C)S(C)(=O)=O)nc(-c2ccc(F)cc2)c1C=CC(O)CC(O)CC(=O)[O-] (centres undefined) [Rosuvastatin] | 108 | 91.4 | 96.2 | 92.9 | 90 | 90.1 | 18.3
20 | CS(=O)(=O)c1ccc(C(=O)[O-])c([N+](=O)[O-])c1 [Mesotrion-MNBA] | 98.9 | 104 | 98 | 57.1 | 89.3 | 93.6 | 9.31
21 | Cn1sccc1=O [2-Methyl-4-isothiazolin-3-one] | 93.6 | 27 | 12 | 11 | 11.7 | 17 | 7.95
22 | CC(C)(C)Nc1nc(N)nc(Cl)n1 [Terbutylazin-desethyl] | 97.7 | 104 | 88.2 | 97.5 | 95.8 | 96.2 | 17.5
23 | CCCCCCCCCCCCCC[N+](C)(C)CCCCCCCCCCCCCC [Dimethylditetradecylammonium (=ATMAC-18)] | 119 | 4.7 | – | – | 55.3 | 38.7 | 21.6
24 | CNC(=O)Oc1cc(C)c(SC)c(C)c1 [Methiocarb] | 67.9 | 64 | 96.3 | 95.4 | 92.7 | 88.7 | 19.4
25 | O=C([O-])c1cn(C2CC2)c2cc(N3CC[NH2+]CC3)c(F)cc2c1=O [Ciprofloxacin] | 105 | – | 77.2 | 73.9 | 72.6 | 73.8 | 11.7
